Experimental data taken from US20250312504A1, “VOLATILE COMPOSITION […] FOR COMPOSITIONS COMPRISING A META-(C1-C4 ALKOXY) […]” (The Procter & Gamble Company, priority 2024, published 2025).

Tests used:
Format in all cases: physicochemical
[1] = Electronic air freshener device test of DPM solutions (crystallization, weight loss); details: for crystal formation in air freshener device over time: 2, 5 and 10 wt. % solutions in DPM, plugged-in device, inspected daily for 4 weeks
Protocol: Each solution (24 mL) was added to a P&G electronic air freshener device and plugged in to a standard 120v outlet. The devices were inspected and weighed daily for 4 weeks. The mass of each device was no longer recorded after the device stopped losing weight.
FIGS. 3-5 show the % weight loss of each solution in the P&G electronic air freshener device.

[2] = Headspace Method, air/solvent partition out of isopropyl myristate (IPM); details: relative to ethylvanillin
Protocol: (§1) Perfume headspace data is collected for various materials according to the method provided below.
(§2) The partition coefficients are calculated by determining the amount of PRM in the headspace above a solution with a known concentration using a GC/FID-MS (Agilent 7890 and 5977A MSD) with a thermal desorption unit (Gerstel MPS2) and Dynamic Headspace Sampler (Gerstel DHS). This technique allows for automated headspace collections using the MultiPurposeSampler (MPS). The PRMs of interest are prepared at a known concentration in isopropyl myristate (IPM) or dipropylene glycol methyl ether (DPM), and 1 mL is pipetted in a 20 mL headspace vial. […]
(§3) Analytical standards can be obtained from Sigma Aldrich, St. Louis, MO and BioSynth, UK. A stock solution is prepared at approximately 0.5 g/L. The stock solution is then diluted to 4 to 5 concentrations ranging from approximately 0.05 g/L to 0.00005 g/L. These standard solutions are then analyzed by GC/MS. […]
(§4) Quantification of the headspace is performed by the PRM target m/z area response of the perfume component and the linear equation of the calibration plot.
(§5) Perfume headspace data is collected for various materials according to the Headspace Method provided above in the Test Methods section. The Air/Solvent partition coefficients are determined and indexed accordingly (e.g., where the partition coefficient for ethylvanillin is set at 1.00).

[3] = Headspace Method, air/solvent partition out of dipropylene glycol methyl ether (DPM); details: relative to ethylvanillin
Protocol: as §1, §2, §3, §4, §5

| crystal formation in air freshener device over time [1] | goes into the headspace more than ethylvanillin out of IPM [2] | goes into the headspace more than ethylvanillin out of DPM [3] | SMILES | weight loss rate of solution in air freshener device ([1]; 2, 5 and 10 wt. % in DPM, most noticeable in the 5% and 10% solutions) |
| --- | --- | --- | --- | --- |
| crystals were seen to form |  |  | COc1cc(C=O)ccc1O [Vanillin, reference compound] |  |
| no crystals formed | about 6.2 × | about 94 × | CCOc1cccc(C=O)c1O [ortho-Ethylvanillin, 2-hydroxy-3-ethoxybenzaldehyde] | steeper weight loss rate than the EV and V solutions |

| SMILES | crystal formation in air freshener device over time [1] | goes into the headspace more than ethylvanillin out of IPM [2] | goes into the headspace more than ethylvanillin out of DPM [3] | weight loss rate of solution in air freshener device ([1]; 2, 5 and 10 wt. % in DPM, most noticeable in the 5% and 10% solutions) |
| --- | --- | --- | --- | --- |
| CCOc1cc(C=O)ccc1O [Ethylvanillin, reference compound] | crystals were seen to form |  |  |  |
